Structures can show the parent of a compound that is named as a salt. Values belong to the compound of their own block, whether it stands above or below them.
Assays:
human and animal plasma = assay: Determination of anticoagulatory activity: activated partial thromboplastin time (aPTT) in plasma; settings: concentration of test substance which brings about a 1.5-fold extension of the aPTT, plasma species not given
In short: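 Citrated plasma (1:9, 0.11 M citrate; 4000 g, 15 min) from human or animal blood incubated with test compound and cephalin/kaolin PTT reagent for 3 min at 37° C.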

human factor XIa = molecular target: T1, human factor XIa (Homo sapiens, UniProt P03951); assay: Measurement of FXIa inhibition (fluorogenic peptide substrate Boc-Glu(OBzl)-Ala-Arg-AMC); format: biochemical; settings: factor XIa from Kordia, 15 min preincubation, 30 min at 22° C., fluorescence
T1 construct: purchased Kordia
In short: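 Released AMC fluorescence (360/460 nm) read after 30 min at 22 °C. The reaction was started with Boc-Glu(OBzl)-Ala-Arg-AMC (10 μM stock) after a 15 min preincubation of the enzyme (0.45 nM stock) with compound (final 50 μM to 0.00013 μM).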

T1 sequence (P03951 388-625 limits assumed): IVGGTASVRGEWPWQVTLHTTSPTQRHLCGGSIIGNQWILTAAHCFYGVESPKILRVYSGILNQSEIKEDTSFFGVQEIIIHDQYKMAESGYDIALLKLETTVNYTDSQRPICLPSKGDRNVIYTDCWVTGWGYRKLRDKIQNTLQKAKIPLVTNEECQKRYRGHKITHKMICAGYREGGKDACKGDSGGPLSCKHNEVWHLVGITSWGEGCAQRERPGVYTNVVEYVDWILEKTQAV
T1 sequence (P03951 19-387 partner limits assumed): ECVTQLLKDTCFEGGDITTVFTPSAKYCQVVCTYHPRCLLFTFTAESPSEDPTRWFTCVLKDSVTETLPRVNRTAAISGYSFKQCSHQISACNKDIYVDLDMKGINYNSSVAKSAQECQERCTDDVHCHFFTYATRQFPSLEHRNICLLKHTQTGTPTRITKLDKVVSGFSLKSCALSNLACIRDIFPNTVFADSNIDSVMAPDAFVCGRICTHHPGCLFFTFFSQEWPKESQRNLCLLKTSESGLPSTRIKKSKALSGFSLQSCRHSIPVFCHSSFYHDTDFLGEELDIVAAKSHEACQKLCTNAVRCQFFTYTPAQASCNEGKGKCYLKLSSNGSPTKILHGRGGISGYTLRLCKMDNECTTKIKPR

SMILES: Cc1cc(C(=O)NC2CCCNC2=O)ccc1-c1ccc(C[C@H](NC(=O)[C@H]2CC[C@H](CN)CC2)C(=O)Nc2ccc(-c3nc(C(F)(F)C(F)(F)C(F)(F)F)n[nH]3)cc2)cc1 (stereo partly drawn) [Example 88, 4′-[(2S)-2-({[trans-4-(Aminomethyl)cyclohexyl]carbonyl}amino)-3-({4-[3-(heptafluoropropyl)-1H-1,2,4-triazol-5-yl]phenyl}amino)-3-oxopropyl]-2-methyl-N-(2-oxopiperidin-3-yl)biphenyl-4-carboxamide hydrochloride]
aPTT (human and animal plasma): 0.31 µmol/L
IC50 (human factor XIa): 2.1 nM

SMILES: Cc1cc(C(=O)NC2CCN(C(C)C)CC2)ccc1-c1ccc(C[C@H](NC(=O)[C@H]2CC[C@H](CN)CC2)C(=O)Nc2ccc(-c3nn[nH]n3)c(F)c2)cc1 [Example 89, 4′-[(2S)-2-({[trans-4-(Aminomethyl)cyclohexyl]carbonyl}amino)-3-{[3-fluoro-4-(2H-tetrazol-5-yl)phenyl]amino}-3-oxopropyl]-N-(1-isopropylpiperidin-4-yl)-2-methylbiphenyl-4-carboxamide hydrochloride]
aPTT (human and animal plasma): 0.03 µmol/L
IC50 (human factor XIa): 4.3 nM

SMILES: Cc1cc(C(=O)NC2CNCC(F)(F)C2)ccc1-c1ccc(C[C@H](NC(=O)[C@H]2CC[C@H](CN)CC2)C(=O)Nc2ccc(-c3nn[nH]n3)c(F)c2)cc1 (stereo partly drawn) [Example 90, 4′-[(2S)-2-({[trans-4-(Aminomethyl)cyclohexyl]carbonyl}amino)-3-{[3-fluoro-4-(2H-tetrazol-5-yl)phenyl]amino}-3-oxopropyl]-N-(5,5-difluoropiperidin-3-yl)-2-methylbiphenyl-4-carboxamide hydrochloride]
aPTT (human and animal plasma): 0.06 µmol/L
IC50 (human factor XIa): 1.6 nM

IC50 (human factor XIa): 7.2 nM
SMILES: Cl.NC[C@H]1CC[C@H](C(=O)N[C@@H](Cc2ccc(-c3ccc(C(=O)NCCN4CCCC4)cc3)cc2)C(=O)Nc2ccc(-c3nnn[nH]3)cc2)CC1 [Example 91, 4′-[(2S)-2-({[trans-4-(Aminomethyl)cyclohexyl]carbonyl}amino)-3-oxo-3-{[4-(1H-tetrazol-5-yl)phenyl]amino}propyl]-N-[2-(pyrrolidin-1-yl)ethyl]biphenyl-4-carboxamide hydrochloride]
aPTT (human and animal plasma): 0.14 µmol/L

SMILES: Cc1cc(C(=O)N[C@H]2CCCNC2=O)ccc1-c1ccc(C[C@H](NC(=O)[C@H]2CC[C@H](CN)CC2)C(=O)Nc2ccc3c(Cl)n[nH]c3c2)cc1 [Example 93, 4′-{(2S)-2-({[trans-4-(Aminomethyl)cyclohexyl]carbonyl}amino)-3-[(3-chloro-1H-indazol-6-yl)amino]-3-oxopropyl}-2-methyl-N-[(3S)-2-oxopiperidin-3-yl]biphenyl-4-carboxamide hydrochloride]
aPTT (human and animal plasma): 0.21 µmol/L
IC50 (human factor XIa): 2.4 nM

SMILES: CCN(CC)C1CCC(NC(=O)c2ccc(-c3ccc(C[C@H](NC(=O)[C@H]4CC[C@H](CN)CC4)C(=O)Nc4ccc5c(Cl)n[nH]c5c4)cc3)c(C)c2)CC1 (stereo partly drawn) [Example 94, 4′-{(2S)-2-({[trans-4-(Aminomethyl)cyclohexyl]carbonyl}amino)-3-[(3-chloro-1H-indazol-6-yl)amino]-3-oxopropyl}-N-[4-(diethylamino)cyclohexyl]-2-methylbiphenyl-4-carboxamide hydrochloride]
aPTT (human and animal plasma): 0.23 µmol/L
IC50 (human factor XIa): 9.2 nM

SMILES: Cc1cc(-c2ccc(C[C@H](NC(=O)[C@H]3CC[C@H](CN)CC3)C(=O)Nc3ccc(-c4nnn[nH]4)cc3)cc2)ccc1C(=O)NC1CC1 [Example 95, 4′-[(2S)-2-({[trans-4-(Aminomethyl)cyclohexyl]carbonyl}amino)-3-oxo-3-{[4-(1H-tetrazol-5-yl)phenyl]amino}propyl]-N-cyclopropyl-3-methylbiphenyl-4-carboxamide hydrochloride]
aPTT (human and animal plasma): 0.33 µmol/L
IC50 (human factor XIa): 2.4 nM

IC50 (human factor XIa): 3.2 nM
SMILES: Cc1cc(C(=O)N[C@@H]2C[C@@H](CO)NC2=O)ccc1-c1ccc(C[C@H](NC(=O)[C@H]2CC[C@H](CN)CC2)C(=O)Nc2ccc3[nH]c(=O)[nH]c3c2)cc1 [Example 97, 4′-{(2S)-2-({[trans-4-(Aminomethyl)cyclohexyl]carbonyl}amino)-3-oxo-3-[(2-oxo-2,3-dihydro-1H-benzimidazol-5-yl)amino]propyl}-N-[(3R,5S)-5-(hydroxymethyl)-2-oxopyrrolidin-3-yl]-2-methylbiphenyl-4-carboxamide hydrochloride]
aPTT (human and animal plasma): 0.06 µmol/L

IC50 (human factor XIa): 1 nM
SMILES: Cc1cc(C(=O)NC2CCNCC2)ccc1-c1ccc(C[C@H](NC(=O)[C@H]2CC[C@H](CN)CC2)C(=O)Nc2ccc(-c3nc(C(F)(F)C(F)(F)C(=O)O)n[nH]3)cc2)cc1 [Example 98, 3-{(5-[4-({(2S)-2-({[trans-4-(Aminomethyl)cyclohexyl]carbonyl}amino)-3-[2′-methyl-4′-(piperidin-4-ylcarbamoyl)biphenyl-4-yl]propanoyl}amino)phenyl]-1H-1,2,4-triazol-3-yl}-2,2,3,3-tetrafluoropropanoic acid hydrochloride]
aPTT (human and animal plasma): 0.06 µmol/L

IC50 (human factor XIa): 4.7 nM
SMILES: Cc1cc(C(=O)N[C@H]2CCNC2=O)ccc1-c1ccc(C[C@H](NC(=O)[C@H]2CC[C@H](CN)CC2)C(=O)Nc2cc(F)c3oc(=O)[nH]c3c2)cc1 [Example 99, 4′-{(2S)-2-({[trans-4-(Aminomethyl)cyclohexyl]carbonyl}amino)-3-[(7-fluoro-2-oxo-2,3-dihydro-1,3-benzoxazol-5-yl)amino]-3-oxopropyl}-2-methyl-N-[(3S)-2-oxopyrrolidin-3-yl]biphenyl-4-carboxamide hydrochloride]
aPTT (human and animal plasma): 0.27 µmol/L

SMILES: Cc1cc(C(=O)NC2CCN(C)CC2)ccc1-c1ccc(C[C@H](NC(=O)[C@H]2CC[C@H](CN)CC2)C(=O)Nc2ccc(-c3nc(C(F)(F)C(F)(F)C(=O)O)n[nH]3)cc2)cc1 [Example 100, 3-[5-(4-{[(2S)-2-({[trans-4-(Aminomethyl)cyclohexyl]carbonyl}amino)-3-{2′-methyl-4′-[(1-methylpiperidin-4-yl)carbamoyl]biphenyl-4-yl}propanoyl]amino}phenyl)-1H-1,2,4-triazol-3-yl]-2,2,3,3-tetrafluoropropanoic acid hydrochloride]
aPTT (human and animal plasma; hydrochloride): 0.1 µmol/L
IC50 (human factor XIa): 2.2 nM

SMILES: Cc1cc(C(=O)NC2CCC(N(C)C)CC2)ccc1-c1ccc(CC(NC(=O)[C@H]2CC[C@H](CN)CC2)C(=O)Nc2ccc(-c3nc(C(F)(F)C(F)(F)C(=O)O)n[nH]3)cc2)cc1 (stereo partly drawn) [Example 101, 3-[5-(4-{[(2S)-2-({[trans-4-(Aminomethyl)cyclohexyl]carbonyl}amino)-3-(4′-{[4-(dimethyl-amino)cyclohexyl]carbamoyl}-2′-methylbiphenyl-4-yl)propanoyl]amino}phenyl)-1H-1,2,4-triazol-3-yl]-2,2,3,3-tetrafluoropropanoic acid hydrochloride]
aPTT (human and animal plasma): 0.07 µmol/L
IC50 (human factor XIa): 1.1 nM

SMILES: Cc1cc(C(=O)N[C@@H]2C[C@@H](CO)NC2=O)ccc1-c1ccc(C[C@H](NC(=O)[C@H]2CC[C@H](CN)CC2)C(=O)Nc2ccc(-c3nc(C(F)(F)C(F)(F)C(=O)O)n[nH]3)cc2)cc1 [Example 106, 3-[5-(4-{[(2S)-2-({[trans-4-(Aminomethyl)cyclohexyl]carbonyl}amino)-3-(4′-{[(3R,5S)-5-(hydroxymethyl)-2-oxopyrrolidin-3-yl]carbamoyl}-2′-methylbiphenyl-4-yl)propanoyl]amino}-phenyl)-1H-1,2,4-triazol-3-yl]-2,2,3,3-tetrafluoropropanoic acid hydrochloride]
aPTT (human and animal plasma): 0.11 µmol/L
IC50 (human factor XIa): 1.1 nM

SMILES: Cc1cc(C(=O)NC2CCNCC2(C)C)ccc1-c1ccc(C[C@H](NC(=O)[C@H]2CC[C@H](CN)CC2)C(=O)Nc2ccc(-c3nnc(C(F)(F)C(F)(F)C(=O)O)[nH]3)cc2)cc1 (stereo partly drawn) [Example 107, 3-[5-(4-{[(2S)-2-({[trans-4-(Aminomethyl)cyclohexyl]carbonyl}amino)-3-{4′-[(3,3-dimethylpiperidin-4-yl)carbamoyl]-2′-methylbiphenyl-4-yl}propanoyl]amino}phenyl)-4H-1,2,4-triazol-3-yl]-2,2,3,3-tetrafluoropropanoic acid hydrochloride]
aPTT (human and animal plasma): 0.1 µmol/L
IC50 (human factor XIa): 1.4 nM

SMILES: Cc1cc(C(=O)NCC2CCN(C)CC2)ccc1-c1ccc(C[C@H](NC(=O)[C@H]2CC[C@H](CN)CC2)C(=O)Nc2ccc(-c3nnc(C(F)(F)C(F)(F)C(=O)O)[nH]3)cc2)cc1 [Example 108, 3-[5-(4-{[(2S)-2-({[trans-4-(Aminomethyl)cyclohexyl]carbonyl}amino)-3-(2′-methyl-4′-{[(1-methylpiperidin-4-yl)methyl]carbamoyl}biphenyl-4-yl)propanoyl]amino}phenyl)-4H-1,2,4-triazol-3-yl]-2,2,3,3-tetrafluoropropanoic acid hydrochloride]
aPTT (human and animal plasma): 0.07 µmol/L
IC50 (human factor XIa): 1.9 nM

SMILES: Cc1cc(C(=O)NC2CCN(C)CC2)ccc1-c1ccc(C[C@H](NC(=O)[C@H]2CC[C@H](CN)CC2)C(=O)Nc2ccc(-c3nc(C(F)(F)C(F)(F)CO)n[nH]3)cc2)cc1 [Example 109, 4′-[(2S)-2-({[trans-4-(Aminomethyl)cyclohexyl]carbonyl}amino)-3-oxo-3-({4-[3-(1,1,2,2-tetrafluoro-3-hydroxypropyl)-1H-1,2,4-triazol-5-yl]phenyl}amino)propyl]-2-methyl-N-(1-methylpiperidin-4-yl)biphenyl-4-carboxamide hydrochloride]
aPTT (human and animal plasma): 0.11 µmol/L
IC50 (human factor XIa): 3 nM

SMILES: Cc1cc(C(=O)N[C@H]2CC[C@H](O)CC2)ccc1-c1ccc(C[C@H](NC(=O)[C@H]2CC[C@H](CN)CC2)C(=O)Nc2ccc(-c3nc(C(F)(F)C(F)(F)CO)n[nH]3)cc2)cc1 [Example 110, 4′-[(2S)-2-({[trans-4-(Aminomethyl)cyclohexyl]carbonyl}amino)-3-oxo-3-({4-[3-(1,1,2,2-tetrafluoro-3-hydroxypropyl)-1H-1,2,4-triazol-5-yl]phenyl}amino)propyl]-N-(trans-4-hydroxycyclohexyl)-2-methylbiphenyl-4-carboxamide hydrochloride]
aPTT (human and animal plasma): 0.11 µmol/L
IC50 (human factor XIa): 1.8 nM

— US20160272617A1, “SUBSTITUTED PHENYLALANINE DERIVATIVES” (BAYER PHARMA AKTIENGESELLSCHAFT, priority 2013, published 2016)
